Reference: patent US7414154B2, “Polyamine compounds and compositions for use in conjunction with cancer therapy” (Wisconsin Alumni Research Foundation, priority 2002, dated 2008)

Tests used:
[1] = test system: 23SK skin cells; assay: cell cycle distribution by flow cytometry; type: cell-based, human; details: 23SK cells
Description: FIGS. 5A-5D are cell histograms showing the results from flow cytometry analysis of chemoprotective polyamine-treated 23SK skin cells.
In FIG. 5, cell histograms showing the results from flow cytometry analysis of chemoprotective polyamine-treated 23SK skin cells are shown. […] The transient nature of the cell cycle block induced by chemoprotective polyamines is believed to be an important aspect of their efficacy, i.e., their ability to block cell cycle progression in stem cells during the course of chemo- or radiotherapy, and the resumption of normal stem cell division after a given cancer therapy course has been completed.

[2] = test system: p21 protein in 23SK human skin cells; assay: p21 induction by western analysis; type: cell-based; details: 30 hr exposure
Procedure: FIGS. 3A and 3B illustrate the level of induced p21 protein seen in diploid human fibroblasts after a 30 hr exposure to each of the indicated chemoprotective polyamines. […] In these experiments, the 23SK human skin cells were exposed for 30 hr to an “IC80” dose of each of the indicated chemoprotective polyamines and then lysed. Cell extracts were then prepared in order to measure p21 levels by western analysis (FIG. 3A).
FIG. 3 illustrates that chemoprotective polyamines are able to induce expression of the negative cell cycle regulatory protein, p21, after exposing the human skin cells to the polyamine molecules. […] In these experiments, the 23SK human skin cells were exposed for 30 hr to an “IC80” dose of each of the indicated chemoprotective polyamines and then lysed. Cell extracts were then prepared in order to measure p21 levels by western analysis (FIG. 3A). Although the ability of modified polyamines to induce p21 is known in the literature (Kramer, D. et al., Cancer Res. 59:1278-1286, 1999), it is a novel aspect of this invention that those chemoprotective polyamines with longer aliphatic “arms” were better able to induce expression of p21 as shown in FIG. 4.

SMILES	Cell Cycle Distribution At IC80 Dose (%) G1 [1]	Cell Cycle Distribution At IC80 Dose (%) G2/M [1]	Cell Cycle Distribution At IC80 Dose (%) S [1]	p21 fold-induction at IC80 Dose [2]
CCNCCCCNCCCCNCCCCNCC=C(CS)CNCCCCNCCCCNCCCCNCC [PrC-116]	66%	23%	11%	
CCNCCCCNCCCCNCCCCNCCCCNCC=C(CS)CNCCCCNCCCCNCCCCNCCCCNCC [PrC-117]	86%	3%	11%	~3.0 fold
CCNCCCCNCCCCNCCCCNCCCCNCC=C(CNCCCCNCCCCNCCCCNCCCCNCC)CN(C)C [PrC-121]	76%	20%	4%	
